Measurements reported in patent publication US7022688B1, “Use of 17β-dihydroequilenin as an antioxidant” (Wyeth, priority 1996, dated 2006).

Legend:
[1] = tested on: oxidatively modified low density lipoprotein (LDL); assay: porcine aortic endothelial cell mediated LDL oxidation assay (TBARS method); type: cell-based; conditions: pocine aortic endothelial cell mediated oxidation of LDL
From the text: (§1) The antioxidant properties of 17β-dihydroequilenin were established in a standard pharmacological test procedure that measured the its ability to inhibit the formation of oxidatively modified low density lipoprotein (LDL) induced by exposure to either Cu++ ions or cultured endothelial cells (Parthasarathy S, Proc Natl Acad Sci USA 86:1046–1050 (1989)) by the TBARS (thiobarbituric acid reactive substances) method for analysis of free aldehydes (Yagi K., Biochem Med 15:212–216 (1976)).

[2] = tested on: oxidatively modified low density lipoprotein (LDL); assay: inhibition of LDL oxidation induced by Cu++ ions or cultured endothelial cells (TBARS method); conditions: maximal inhibition of the process
From the text: as §1

IC50 [1] [nM] | SMILES | inhibition of LDL oxidation [2]
560 | C[C@]12CC[C@@H]3c4ccc(O)cc4CC[C@H]3[C@@H]1CCC2=O [estrone, reference compound] | 
315 | C[C@]12CCc3c(ccc4cc(O)ccc34)[C@@H]1CC[C@@H]2O [17β-dihydroequilenin] | up to 100%
